In patent US20260053932A1, “COMPOUNDS AND METHODS FOR THE TARGETED DEGRADATION OF ANDROGEN RECEPTOR AND ASSOCIATED METHODS OF USE” (Arvinas Operations, Inc., priority 2020, published 2026):

What follows are compounds tested on androgen receptor (AR) in LNCaP and/or VCaP cells (assay: Androgen Receptor ELISA assay (AR degradation)). Settings: degradation of AR ELISA in LNCaP and/or VCaP cells; Table 2C; read-out: DC50 Code*.
Assay type: cell-based
Outline: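 VCaP cells grown ≥3 days, then treated 5 h with compound in media containing 1 nM R1881 (10× stock). Cells lysed and AR quantified by sandwich ELISA (mouse AR detection Ab, HRP anti-mouse, TMB). DC50 and Dmax derived from AR degradation.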

DC50, < 1 nM:
Cc1cc(O[C@H]2C(C)(C)[C@H](NC(=O)c3ccc(N4CCC(CN(C(C)C)[C@H]5C[C@H](Oc6ccc7c(c6)C(=O)N(C6CCC(=O)NC6=O)C7=O)C5)CC4)nn3)C2(C)C)cc(C)c1C#N (some centres unmarked) [compound 110, N-((1r,3r)-3-(4-cyano-3,5-dimethylphenoxy)-2,2,4,4-tetramethylcyclobutyl)-6-(4-((((1r,3r)-3-((2-(2,6-dioxopiperidin-3-yl)-1,3-dioxoisoindolin-5-yl)oxy)cyclobutyl) (isopropyl)amino)methyl)piperidin-1-yl)pyridazine-3-carboxamide]
CC1(C)[C@H](NC(=O)c2ccc(N3CCC(CCN4CC5CN(c6ccc7c(c6)C(=O)N(C6CCC(=O)NC6=O)C7=O)CC5C4)C3)cc2)C(C)(C)[C@H]1Oc1ccc(C#N)c(Cl)c1 (some centres unmarked) [compound 111, N-((1r,3r)-3-(3-chloro-4-cyanophenoxy)-2,2,4,4-tetramethylcyclobutyl)-4-(3-(2-(5-(2-(2,6-dioxopiperidin-3-yl)-1,3-dioxoisoindolin-5-yl)hexahydropyrrolo[3,4-c]pyrrol-2(1H)-yl)ethyl)pyrrolidin-1-yl)benzamide]
Cc1cc(O[C@H]2C(C)(C)[C@H](NC(=O)c3cnc(N4CCC(CN(C(C)C)[C@H]5C[C@H](Oc6ccc7c(c6)C(=O)N(C6CCC(=O)NC6=O)C7=O)C5)CC4)cn3)C2(C)C)cc(C)c1C#N (some centres unmarked) [compound 112, N-((1r,3r)-3-(4-cyano-3,5-dimethylphenoxy)-2,2,4,4-tetramethylcyclobutyl)-5-(4-((((1r,3r)-3-((2-(2,6-dioxopiperidin-3-yl)-1,3-dioxoisoindolin-5-yl)oxy)cyclobutyl) (isopropyl)amino)methyl)piperidin-1-yl)pyrazine-2-carboxamide]
CC(C)N(CC1CCN(c2cnc(C(=O)N[C@H]3C(C)(C)[C@H](Oc4ccc(C#N)c(Cl)c4)C3(C)C)cn2)CC1)[C@H]1C[C@H](Oc2ccc3c(c2)CN(C2CCC(=O)NC2=O)C3=O)C1 (some centres unmarked) [compound 113, N-((1r,3r)-3-(3-chloro-4-cyanophenoxy)-2,2,4,4-tetramethylcyclobutyl)-5-(4-((((1r,3r)-3-((2-(2,6-dioxopiperidin-3-yl)-1-oxoisoindolin-5-yl)oxy)cyclobutyl) (isopropyl)amino)methyl)piperidin-1-yl)pyrazine-2-carboxamide]
CC1(C)[C@H](NC(=O)c2ccc(N3CCC(CN4CC5CN(c6ccc7c(c6)C(=O)N(C6CCC(=O)NC6=O)C7=O)CC5C4)CC3)cc2)C(C)(C)[C@H]1Oc1ccc(C#N)c(Cl)c1 (some centres unmarked) [compound 114, N-((1r,3r)-3-(3-chloro-4-cyanophenoxy)-2,2,4,4-tetramethylcyclobutyl)-4-(4-((5-(2-(2,6-dioxopiperidin-3-yl)-1,3-dioxoisoindolin-5-yl)hexahydropyrrolo[3,4-c]pyrrol-2(1H)-yl)methyl)piperidin-1-yl)benzamide]
Cc1cc(O[C@H]2C(C)(C)[C@H](NC(=O)c3cnc(N4CCC(CCN5CC(Oc6ccc7c(c6)C(=O)N(C6CCC(=O)NC6=O)C7=O)C5)CC4)cn3)C2(C)C)cc(C)c1C#N (some centres unmarked) [compound 115, N-((1r,3r)-3-(4-cyano-3,5-dimethylphenoxy)-2,2,4,4-tetramethylcyclobutyl)-5-(4-(2-(3-((2-(2,6-dioxopiperidin-3-yl)-1,3-dioxoisoindolin-5-yl)oxy)azetidin-1-yl)ethyl)piperidin-1-yl)pyrazine-2-carboxamide]
COCCN(CC1CCN(c2cnc(C(=O)N[C@H]3C(C)(C)[C@H](Oc4ccc(C#N)c(OC)c4)C3(C)C)cn2)CC1)[C@H]1C[C@H](Oc2ccc3c(c2)C(=O)N(C2CCC(=O)NC2=O)C3=O)C1 (some centres unmarked) [compound 116, N-((1r,3r)-3-(4-cyano-3-methoxyphenoxy)-2,2,4,4-tetramethylcyclobutyl)-5-(4-((((1r,3r)-3-((2-(2,6-dioxopiperidin-3-yl)-1,3-dioxoisoindolin-5-yl)oxy)cyclobutyl)(2-methoxyethyl)amino)methyl)piperidin-1-yl)pyrazine-2-carboxamide]
Cc1cc(O[C@H]2C(C)(C)[C@H](NC(=O)c3cnc(N4CC(CN5CCC(Oc6ccc7c(c6)C(=O)N(C6CCC(=O)NC6=O)C7=O)CC5)C4)cn3)C2(C)C)cc(C)c1C#N (some centres unmarked) [compound 117, N-((1r,3r)-3-(4-cyano-3,5-dimethylphenoxy)-2,2,4,4-tetramethylcyclobutyl)-5-(3-((4-((2-(2,6-dioxopiperidin-3-yl)-1,3-dioxoisoindolin-5-yl)oxy)piperidin-1-yl)methyl)azetidin-1-yl)pyrazine-2-carboxamide]
Cc1cc(O[C@H]2C(C)(C)[C@H](NC(=O)c3cnc(N4CC(CN[C@H]5C[C@H](Oc6ccc7c(c6)C(=O)N(C6CCC(=O)NC6=O)C7=O)C5)C4)cn3)C2(C)C)cc(C)c1C#N (some centres unmarked) [compound 118, N-((1r,3r)-3-(4-cyano-3,5-dimethylphenoxy)-2,2,4,4-tetramethylcyclobutyl)-5-(3-((((1r,3r)-3-((2-(2,6-dioxopiperidin-3-yl)-1,3-dioxoisoindolin-5-yl)oxy)cyclobutyl)amino)methyl)azetidin-1-yl)pyrazine-2-carboxamide]
COCCN(CC1CCN(c2cnc(C(=O)N[C@H]3C(C)(C)[C@H](Oc4cc(C)c(C#N)c(C)c4)C3(C)C)cn2)CC1)[C@H]1C[C@H](Oc2ccc3c(c2)C(=O)N(C2CCC(=O)NC2=O)C3=O)C1 (some centres unmarked) [compound 119, N-((1r,3r)-3-(4-cyano-3,5-dimethylphenoxy)-2,2,4,4-tetramethylcyclobutyl)-5-(4-((((1r,3r)-3-((2-(2,6-dioxopiperidin-3-yl)-1,3-dioxoisoindolin-5-yl)oxy)cyclobutyl)(2-methoxyethyl)amino)methyl)piperidin-1-yl)pyrazine-2-carboxamide]
CCc1c(O[C@H]2C[C@H](N(CC3CCN(c4cnc(C(=O)N[C@H]5C(C)(C)[C@H](Oc6ccc(C#N)c(Cl)c6)C5(C)C)cn4)CC3)C(C)C)C2)ccc2c1CN(C1CCC(=O)NC1=O)C2=O (some centres unmarked) [compound 120, N-((1r,3r)-3-(3-chloro-4-cyanophenoxy)-2,2,4,4-tetramethylcyclobutyl)-5-(4-((((1r,3r)-3-((2-(2,6-dioxopiperidin-3-yl)-4-ethyl-1-oxoisoindolin-5-yl)oxy)cyclobutyl) (isopropyl)amino)methyl)piperidin-1-yl)pyrazine-2-carboxamide]
COCCN(CC1CCN(c2ccc(C(=O)N[C@H]3C(C)(C)[C@H](Oc4cc(C)c(C#N)c(C)c4)C3(C)C)nn2)CC1)[C@H]1C[C@H](Oc2ccc3c(c2)C(=O)N(C2CCC(=O)NC2=O)C3=O)C1 (some centres unmarked) [compound 121, N-((1r,3r)-3-(4-cyano-3,5-dimethylphenoxy)-2,2,4,4-tetramethylcyclobutyl)-6-(4-((((1r,3r)-3-((2-(2,6-dioxopiperidin-3-yl)-1,3-dioxoisoindolin-5-yl)oxy)cyclobutyl)(2-methoxyethyl)amino)methyl)piperidin-1-yl)pyridazine-3-carboxamide]
COc1cc(O[C@H]2C(C)(C)[C@H](NC(=O)c3cnc(N4CC5(CC(CN(C(C)C)[C@H]6C[C@H](Oc7ccc8c(c7)C(=O)N(C7CCC(=O)NC7=O)C8=O)C6)C5)C4)cn3)C2(C)C)ccc1C#N (some centres unmarked) [compound 122, N-((1r,3r)-3-(4-cyano-3-methoxyphenoxy)-2,2,4,4-tetramethylcyclobutyl)-5-(6-((((1r,3r)-3-((2-(2,6-dioxopiperidin-3-yl)-1,3-dioxoisoindolin-5-yl)oxy)cyclobutyl) (isopropyl)amino)methyl)-2-azaspiro[3.3]heptan-2-yl)pyrazine-2-carboxamide]
CC(C)N(CC1CCN(c2cnc(C(=O)N[C@H]3C(C)(C)[C@H](Oc4ccc(C#N)c(Cl)c4)C3(C)C)cn2)CC1)[C@H]1C[C@H](Oc2ccc3c(c2)C(=O)N(C2CCC(=O)NC2=O)C3)C1 (some centres unmarked) [compound 123, N-((1r,3r)-3-(3-chloro-4-cyanophenoxy)-2,2,4,4-tetramethylcyclobutyl)-5-(4-((((1r,3r)-3-((2-(2,6-dioxopiperidin-3-yl)-3-oxoisoindolin-5-yl)oxy)cyclobutyl) (isopropyl)amino)methyl)piperidin-1-yl)pyrazine-2-carboxamide]
COc1cc(O[C@H]2C[C@H](N(CC3CCN(c4cnc(C(=O)N[C@H]5C(C)(C)[C@H](Oc6ccc(C#N)c(Cl)c6)C5(C)C)cn4)CC3)C(C)C)C2)cc2c1C(=O)N(C1CCC(=O)NC1=O)C2=O (some centres unmarked) [compound 124, N-((1r,3r)-3-(3-chloro-4-cyanophenoxy)-2,2,4,4-tetramethylcyclobutyl)-5-(4-((((1r,3r)-3-((2-(2,6-dioxopiperidin-3-yl)-7-methoxy-1,3-dioxoisoindolin-5-yl)oxy)cyclobutyl) (isopropyl)amino)methyl)piperidin-1-yl)pyrazine-2-carboxamide]
CC1(C)[C@H](NC(=O)c2ccc(N3CCN([C@H]4CC[C@H](Oc5ccc6c(c5)C(=O)N(C5CCC(=O)NC5=O)C6=O)C4)CC3)cc2)C(C)(C)[C@H]1Oc1ccc(C#N)c(Cl)c1 (stereo partly drawn) [compound 125, N-((1r,3S)-3-(3-chloro-4-cyanophenoxy)-2,2,4,4-tetramethylcyclobutyl)-4-(4-((1S,3S)-3-((2-(2,6-dioxopiperidin-3-yl)-1,3-dioxoisoindolin-5-yl)oxy)cyclopentyl)piperazin-1-yl)benzamide]
COCCN(CC1CCN(c2ccc(C(=O)N[C@H]3C(C)(C)[C@H](Oc4ccc(C#N)c(Cl)c4)C3(C)C)nn2)CC1)[C@H]1C[C@H](Oc2ccc3c(c2)C(=O)N(C2CCC(=O)NC2=O)C3=O)C1 (some centres unmarked) [compound 127, N-((1r,3r)-3-(3-chloro-4-cyanophenoxy)-2,2,4,4-tetramethylcyclobutyl)-6-(4-((((1r,3r)-3-((2-(2,6-dioxopiperidin-3-yl)-1,3-dioxoisoindolin-5-yl)oxy)cyclobutyl)(2-methoxyethyl)amino)methyl)piperidin-1-yl)pyridazine-3-carboxamide]
